Measurements from patent publication US9211310B2, “Use of a Chinese medicine composition in preparing medicaments for treating secondary prevention of myocardial infarction” (TASLY PHARMACEUTICAL GROUP CO., LTD, priority 2010, dated 2015).

System: patients after acute myocardial infarction
Assay: Life quality, Seattle Angina Questionnaire (SAQ), same clinical trial
Format: in vivo, human
Conditions: PP
Text: 3508 patients who were in accordance with the diagnostic standards of AMI for 28 days to 2 years and differentiated as Qi deficiency and blood stagnation syndrome by TCM were studied. 0.5 g Chinese medicine composition prepared by the method of EXAMPLE 1 (Coded as QSYQ) was administrated half an hour after meal, 3 times per day.
There were 19 questions in the Seattle angina questionnaire (SAQ), including 5 parts: physical limitation (PL), anginal stability (AS), anginal frequency (AF), treatment satisfaction (TS) and disease perception (DP). After being given necessary explanation by doctors, the questions were answered independently by patients.
They included the overall survival time, angina pectoris score, TCM symptom score and life quality score, where angina pectoris score, TCM symptom score and life quality score were evaluated at randomization, in 1st, 3rd, 6th, 9th, 12th month after treatment and 18th month after follow-up.
All evaluation results of SAQ were described during the period of observation, and Wilcoxon rank sum test was used for inter-group comparison.
The evaluation results in the SAQ were depicted in different observations, and inter-group comparison was tested by Wilcoxon Rank-sum test.

SMILES: CC(=O)Oc1ccccc1C(=O)O [Control group, aspirine]
- SAQ 5th question, <1 time per week: number of patients (9 months after treatment): 412
- SAQ 5th question, No onset: % of patients (9 months after treatment): (4.66%)
- SAQ 5th question, No onset: number of patients (9 months after treatment): 67
- SAQ 5th question, ≧3 times per week: % of patients (9 months after treatment): (29.49%)
- SAQ 5th question, ≧3 times per week: number of patients (9 months after treatment): 424
- SAQ 5th question, ≧4 times per day: % of patients (9 months after treatment): (0.49%)
- SAQ 5th question, ≧4 times per day: number of patients (9 months after treatment): 7
- SAQ 6th question, Dissatisfied: % of patients (9 months after treatment): (0.07%)
- SAQ 6th question, Dissatisfied: number of patients (9 months after treatment): 1
- SAQ 6th question, Highly satisfied: % of patients (9 months after treatment): (24.93%)
- SAQ 6th question, Highly satisfied: number of patients (9 months after treatment): 359
- SAQ 6th question, Mostly dissatisfied: % of patients (9 months after treatment): (1.53%)
- SAQ 6th question, Mostly dissatisfied: number of patients (9 months after treatment): 22
- SAQ 6th question, Mostly satisfied: % of patients (9 months after treatment): (59.38%)
- SAQ 6th question, Mostly satisfied: number of patients (9 months after treatment): 855
- SAQ 6th question, Partly satisfied: % of patients (9 months after treatment): (14.10%)
- SAQ 6th question, Partly satisfied: number of patients (9 months after treatment): 203
- SAQ 7th question, Dissatisfied: % of patients (9 months after treatment): (0.07%)
- SAQ 7th question, Dissatisfied: number of patients (9 months after treatment): 1
- SAQ 7th question, Highly satisfied: % of patients (9 months after treatment): (28.44%)
- SAQ 7th question, Highly satisfied: number of patients (9 months after treatment): 409
- SAQ 7th question, Most dissatisfied: % of patients (9 months after treatment): (0.83%)
- SAQ 7th question, Most dissatisfied: number of patients (9 months after treatment): 12
- SAQ 7th question, Mostly satisfied: % of patients (9 months after treatment): (59.74%)
- SAQ 7th question, Mostly satisfied: number of patients (9 months after treatment): 859
- SAQ 7th question, Partly satisfied: % of patients (9 months after treatment): (10.92%)
- SAQ 7th question, Partly satisfied: number of patients (9 months after treatment): 157
- SAQ Question 1-1 Mildly limited, number of patients (9 months after treatment): 18
- SAQ Question 1-1 Mildly limited, percent of patients (9 months after treatment): (1.25%)
- SAQ Question 1-1 Moderately limited, number of patients (9 months after treatment): 3
- SAQ Question 1-1 Moderately limited, percent of patients (9 months after treatment): (0.21%)
- SAQ Question 1-1 Not limited, number of patients (9 months after treatment): 1366
- SAQ Question 1-1 Not limited, percent of patients (9 months after treatment): (95.06%)
- SAQ Question 1-1 Other reasons, number of patients (9 months after treatment): 3
- SAQ Question 1-1 Other reasons, percent of patients (9 months after treatment): (0.21%)
- SAQ Question 1-1 Severely limited, number of patients (9 months after treatment): 0
- SAQ Question 1-1 Severely limited, percent of patients (9 months after treatment): (0.00%)
- SAQ Question 1-1 Slightly limited, number of patients (9 months after treatment): 47
- SAQ Question 1-1 Slightly limited, percent of patients (9 months after treatment): (3.27%)
- SAQ Question 1-2 Mildly limited, number of patients (9 months after treatment): 20
- SAQ Question 1-2 Mildly limited, percent of patients (9 months after treatment): (1.39%)
- SAQ Question 1-2 Moderately limited, number of patients (9 months after treatment): 4
- SAQ Question 1-2 Moderately limited, percent of patients (9 months after treatment): (0.28%)
- SAQ Question 1-2 Not limited, number of patients (9 months after treatment): 1358
- SAQ Question 1-2 Not limited, percent of patients (9 months after treatment): (94.50%)
- SAQ Question 1-2 Other reasons, number of patients (9 months after treatment): 5
- SAQ Question 1-2 Other reasons, percent of patients (9 months after treatment): (0.35%)
- SAQ Question 1-2 Severely limited, number of patients (9 months after treatment): 0
- SAQ Question 1-2 Severely limited, percent of patients (9 months after treatment): (0.00%)
- SAQ Question 1-2 Slightly limited, number of patients (9 months after treatment): 50
- SAQ Question 1-2 Slightly limited, percent of patients (9 months after treatment): (3.48%)
- SAQ Question 1-6: Mildly limited, patients (%) (9 months after treatment): (14.59%)
- SAQ Question 1-6: Moderately limited, patients (%) (9 months after treatment): (11.31%)
- SAQ Question 1-6: Not limited, patients (%) (9 months after treatment): (38.48%)
- SAQ Question 1-6: Other reasons, patients (%) (9 months after treatment): (0.91%)
- SAQ Question 1-6: Severely limited, patients (%) (9 months after treatment): (2.30%)
- SAQ Question 1-6: Slightly limited, patients (%) (9 months after treatment): (32.40%)
- SAQ Question 1-7: Mildly limited, patients (%) (9 months after treatment): (21.63%)
- SAQ Question 1-7: Moderately limited, patients (%) (9 months after treatment): (10.88%)
- SAQ Question 1-7: Not limited, patients (%) (9 months after treatment): (18.30%)
- SAQ Question 1-7: Other reasons, patients (%) (9 months after treatment): (3.25%)
- SAQ Question 1-7: Severely limited, patients (%) (9 months after treatment): (13.71%)
- SAQ Question 1-7: Slightly limited, patients (%) (9 months after treatment): (32.23%)
- SAQ Question 1-8: Mildly limited, patients (%) (9 months after treatment): (25.11%)
- SAQ Question 1-8: Moderately limited, patients (%) (9 months after treatment): (14.11%)
- SAQ Question 1-8: Not limited, patients (%) (9 months after treatment): (12.34%)
- SAQ Question 1-8: Other limited, patients (%) (9 months after treatment): (3.76%)
- SAQ Question 1-8: Severely limited, patients (%) (9 months after treatment): (17.23%)
- SAQ Question 1-8: Slightly limited, patients (%) (9 months after treatment): (27.45%)
- 8th question: Dissatisfied, patients (%) (12 months after treatment): (0.00%)
- 8th question: Highly satisfied, patients (%) (12 months after treatment): (26.80%)
- 8th question: Mostly dissatisfied, patients (%) (12 months after treatment): (1.26%)
- 8th question: Mostly satisfied, patients (%) (12 months after treatment): (61.16%)
- 8th question: Partly satisfied, patients (%) (12 months after treatment): (10.78%)
- 9th question: Few, patients (%) (12 months after treatment): (41.42%)
- 9th question: Mild, patients (%) (12 months after treatment): (29.64%)
- 9th question: Moderate, patients (%) (12 months after treatment): (4.48%)
